Measurements reported in patent US10124111B2, “Small molecule dye for molecular imaging and photothermal therapy” (The Board of Trustees of the Leland Stanford Junior …, priority 2015, dated 2018).
One block for each molecule: values may come before it.

How the values were obtained:
[1] = Photoacoustic imaging analysis of phantoms; format: physicochemical
Description: For studying the PAI properties of the compound, a cuboid container was half filled with 1% agarose gel to half depth. Different concentrations of compounds aqueous solutions were filled into polyethylene capillaries and then the capillaries were laid on the surface of solidified agarose gel. The capillaries were further covered with thin 1% agarose gel to make the surface smooth. PA spectra and PA/US coregistered images were acquired with a LAZR commercial instrument (VevoLAZR; VisualSonics). It is equipped with a LZ-250 linear array transducer and a tunable Nd:YAG laser system (680-970 nm). In our system, the Vevo LAZR PAI System with a laser at excitation wavelength of 700 nm and a focal depth of 10 mm was used to acquire PA and US images. […] Acquisition rate of 5 frames per second was used for all the experiments. The photoacoustic gain was kept at 42 dB, dynamic range at 18 dB and center frequency of 21 MHz for all studies. US and PA images were obtained sequentially. The PA signals reported were the average pixel intensities from within the Regions of Interest (ROIs). Normalization and quantification of the images were carried out using ImageJ.
Fluorophores with the present design not only have NIR II fluorescence, but also show strong absorption in the NIR-I region and show promise for in vivo photoacoustic imaging. […]

[2] = Optical characterization (emission spectrum, quantum yield, photostability); format: physicochemical; details: 808 nm excitation laser
Description: The NIR fluorescence spectrum was taken using a home-built NIR spectroscopy setup. The excitation source was a 200-W ozone-free mercury/xenon lamp (Oriel), which was dispersed by a monochromator (Oriel) to generate an excitation line with a bandwidth of 15 nm. The excitation light was allowed to pass through the solution sample in a 1-mm-path cuvette (Starna Cells, Inc.), and the emission was collected in a transmission geometry. The […] was collected in the 790-1500 nm emission range. The emitted light was directed into a spectrometer (Acton SP2300i) equipped with a liquid-nitrogen-cooled InGaAs linear array detector (Princeton OMA-V). Spectra were corrected post-collection to account for the sensitivity of the detector and extinction feature of the filter. Photostability was determined by spiking CH1055-PEG into serum, PBS, and DI and exposing it in a 1-mm path length cuvette (Starna Cells, Inc.) to continuous 808 nm excitation at a power density of 0.3 W/cm^2 and taking images every 10 seconds for ˜1 hour. Stability was determined by measuring the ROI and comparing the fluorescence intensity to the starting fluorescence signal.
In order to further increase solubility, the carboxylic acid groups of CH1055 were PEGylated with 2 kDa PEG-NH2 through EDC/NHS chemistry.

[3] = Preliminary animal imaging of CH-4T excretion; format: in vivo
Description: It is a small molecule dye similar to ICG, Cy5, and IR800, and enables easier access to NIR-II imaging, as it doesn't require a specialized knowledge of nanomaterials which make up the majority of NIR-II fluorophores.

[4] = NIR-II fluorescence brightness and quantum yield in DI, PBS, FBS, serum and serum proteins; format: physicochemical
Description: The compound contains a taurine (2-aminoethanesulfonic acid) group at the carboxyl linkers of CH1055. […] Sulfonating the present NIR-II dyes is a general procedure that can be applied to a number of the NIR-II small molecules described above to increase their solubility.
The absorbance value of both fluorophores (OD 0.02) in each respective media is equivalent at the excitation wavelength (808 nm) to compare relative quantum yields. NIR-IIa fluorescent image of a C57 mouse brain (1300 LP) after an intravenous injection of equivalent doses of CH-4T (200 ms exposure; Panel B) and of CH1055-PEG (1 s exposure; Panel D). The image intensity scales have been compensated to account for the differences in the exposure times needed to clearly resolve brain vasculature.
(§1) This fluorescence enhancement produces a serum quantum yield of up to ˜10% which is on par with ICG and is among the highest quantum yields of all NIR-II fluorophores (including carbon nanotubes). While soluble in PBS, the quantum yield of CH-4T was determined to be ˜0.07%, yet is enhanced ˜60× through complexation with serum proteins in FBS.
Increased brightening of CH-4T also results from protein interactions. A fluorescence emission spectrum of CH1055-PEG and CH-4T in both FBS and PBS was determined. […] The increased intensity (40,000 a.u. around 1000 nm) for CH-4T in FBS was observed.
While CH-4T complexed with proteins produces an incredibly bright contrast agent, pretreatment of the proteins prior to complexation and subsequent isolation of the bright dye-protein complexes can introduce a further increase in brightness. For instance, a short 10 minutes of horn sonication of FBS prior to mixing with CH-4T followed by 10 minutes of heating in a hot water bath at ˜80° C. can boost the brightness of the CH-4T-protein complex by ˜3-4-fold. The effects on the fluorescence emission spectrum of heating and pre-horn sonicating can be seen while the brightness difference of an FBS-CH-4T solution before and after treatment (data not shown). […]

human and bovine albumin = assay: Binding of CH-4T to serum proteins; details: whole blood, HDL
Description: as §1

Aqueous solubility = format: physicochemical; details: water / PBS
[5] = tested on: shoulder xenograft U87MG tumors; assay: Lymph node / lymphatic vasculature and tumor imaging after intradermal injection; format: in vivo, immunodeficient nude mice; details: intradermal injection near base of tail
Description: An emerging fluorescent imaging application of ICG currently undergoing clinical trials is in detecting sentinel lymph nodes (SLN) for surgical resection.(28-30) Selectively removing sentinel lymph nodes alleviates lymphedema and other ailments that would be caused by total lymph node removal performed to prevent cancer metastasis. Fluorescent imaging has many benefits compared to the more traditional detection means that include injecting a colored dye, a radioisotope, or a combination of both. ICG is typically injected near a tumor to visualize the lymphatic vessels draining the tumor as well as the sentinel lymph nodes. […] Immediately after injection, CH1055-PEG drainage into the internodal collecting lymphatic vasculature and the inguinal lymph node became apparent. […] (data not shown)
The gradual increase in fluorescence emanating from the tumor occurred while all lymphatic vessels and nodes were still visible.

NIR-I absorption maximum [1]: 700 nm
wavelength of maximum photoacoustic signal ([1]; NIR pulsed laser, 680-970 nm scan): 700 nm
peak fluorescent emission wavelength [2]: ~1055 nm
SMILES: O=C(O)CCc1ccc(N(c2ccc(CCC(=O)O)cc2)c2ccc(-c3c4c(c(-c5ccc(N(c6ccc(CCC(=O)O)cc6)c6ccc(CCC(=O)O)cc6)cc5)c5nsnc35)N=S=N4)cc2)cc1 [CH1055]

excretion kinetics [3]: resemble that of ICG
quantum yield ([4]; in PBS): ~0.07%
serum quantum yield ([4]; in serum, complexed with serum proteins): ≤ 10%
quantum yield ([4]; with treated FBS (sonicated, heated)): ~13%
binding to serum proteins (human and bovine albumin): strong binding
aqueous solubility (Aqueous solubility): highly soluble
SMILES: O=C(CCc1ccc(N(c2ccc(CCC(=O)NCCS(=O)(=O)O)cc2)c2ccc(-c3c4c(c(-c5ccc(N(c6ccc(CCC(=O)NCCS(=O)(=O)O)cc6)c6ccc(CCC(=O)NCCS(=O)(=O)O)cc6)cc5)c5nsnc35)N=S=N4)cc2)cc1)NCCS(=O)(=O)O [CH-4T]

liver signal after intradermal injection [5]: obvious liver signal
SMILES: CC1(C)C(/C=C/C=C/C=C/C=C2\N(CCCCS(=O)(=O)O)c3ccc4ccccc4c3C2(C)C)=[N+](CCCCS(=O)(=O)[O-])c2ccc3ccccc3c21 [ICG, indocyanine green]
tumor fluorescence after intradermal injection [5]: little tumor signal was observed
